In publication PMC12013085, “Peptides targeting RAB11A–FIP2 complex inhibit HPIV3, RSV, and IAV replication as broad-spectrum antivirals” (Cell & Bioscience, 2025):
Where a SMILES comes first, the peptide text is derived from it.

What was measured:
[1] = In vivo drug toxicity study; details: male ICR mice, 5 or 10 mg/kg i.p. for consecutive 3 days
Procedure: The 6–8 weeks old male ICR male mice, were randomly assigned into three groups and each group had 5 mice. The mice were i.p. injected with 5 mg/kg YT-DRI, 10 mg/kg YT-DRI, or the same volume of PBS for consecutive 3 days. During the experiment, body weight was recorded for 15 days. At the end of the experiment, the mice were perfused, and tissue samples of heart, liver, lung, and kidney were collected for histopathological examination.
Supplementary file 13578_2025_1384_MOESM8_ESM.tif: Supplementary Material 8. Fig. S8. In vivo safety of YT-DRI. (A) Body weight changes of the 6-week-old ICR mice treated with PBS or 5 mg/kg or 10 mg/kg of YT-DRI at the indicated time points. (B) Hematoxylin and eosin staining of various tissues under an optical microscope for histopathological morphology analysis at 14 days after i.p. administration. Scale bar, 200 μm.

[2] = system: HeLa, A549, MK2, MDCK and HEp-2 cells; details: CCK-8, 24 h treatment, in the tested cell lines (HeLa, A549, MK2, MDCK, HEp-2)
RSV [3] = system: RSV
RAB11A–FIP2 complex = test: In vitro co-IP of mixed 293T lysates (FIP2, N protein, RAB11A)
Procedure: 293 T cells were individually transfected with plasmids encoding FIP2, the N protein, and RAB11A for 36 h, after which their lysates were mixed for in vitro co-IP analysis. […] All experiments were independently replicated at least twice with consistent results. Statistical significance (*p < 0.05) was determined by two-sided unpaired t-test. Data are presented as means ± SEM
293T cells were transfected with the indicated plasmids for 36 h, and cell lysates were prepared using lysis buffer as described in the Western blot (WB) analysis section. The supernatants were collected and incubated with anti-Flag or anti-Myc magnetic beads (MCE) following the manufacturer’s instructions for co-IP. The immunoprecipitated proteins were then analyzed via WB.

HPIV3, RSV, and IAV = type: cell-based
IAV = type: cell-based, influenza A virus; details: IAV MOI 0.01, 5 μM, 24 hpi, TCID50
EV71 = type: cell-based, Enterovirus 71; details: HeLa cells, EV71 MOI = 0.1, escalating concentrations, 24 hpi, TCID50
[4] = In vivo biodistribution of Cy5-YT-DRI, IVIS imaging; details: BALB/c mice, i.p. administration
Procedure: Female BALB/c mice, aged 6–8 weeks, were randomly divided into two groups. One group received an intraperitoneal injection of PBS (n = 3) for background fluorescence measurement, while the other group received 5 mg/kg Cy5-YT-DRI (n = 3). Bioluminescence readings were performed at various time points using the IVIS Lumina K Series III. Following imaging, mice were euthanized, and the indicated tissues were collected for further evaluation of fluorescence values. The average radiance is expressed as the sum of photons per second from each pixel inside the region of interest per the number of pixels (p s^−1 cm^−2 sr^−1).
Supplementary file 13578_2025_1384_MOESM7_ESM.tif: Supplementary Material 7. Fig. S7. In Vivo biodistribution of Cy5-YT-DRI. (A) Mice were treated with PBS or Cy5-YT-DRI (5mg/kg) via intraperitoneal injection. Bioluminescence readings were conducted at different time points using the IVIS Lumina K Series III for ventral (the upper row) and dorsal (the lower row) views, and the average radiance is expressed as the sum of the photons per second from each pixel inside the region of interest per the number of pixels (p s−1 cm−2 sr−1). (B-F) Representative images of the brains(B), lungs (C), livers (D), kidneys (E), and hearts (F) from the PBS-treated or Cy5-YT-DRI-treated mice. (G) Normalized bioluminescence results are expressed as means ± SEM from at least two experiments. […]

[5] = system: HPIV3 clinical strain VR93; type: in vivo, nude BALB/c mice
HPIV3 VLPs in 293T cells = test: HPIV3 VLP budding and plasma membrane fraction assay, WB; type: cell-based; details: 293T cells, compared to Tat-treated control
Procedure: (§1) Data are presented as means ± SEM
The cell lysates were prepared as described for the Western blot (WB) analysis. The supernatant was harvested and clarified by centrifugation at 12,000×g for 5 min. Subsequently, the supernatant was pelleted through a 20% sucrose cushion at 4 °C at 35,000 rpm for 2 h. The VLP pellets obtained were resuspended in PBS and boiled with SDS-PAGE loading buffer at 100 °C for 10 min. Both the cell lysates and the supernatants were then subjected to WB analysis.
293T cells, cultured in 6-cm dishes, were transfected with the indicated plasmids for 24 h. Cell collection was performed through centrifugation at 500×g for 5 min at 4 °C. Subsequently, cytosol, organelle membrane, and plasma membrane-associated proteins were extracted sequentially using the MinuteTM plasma membrane protein isolation and cell fractionation kit (INVENT), following the manufacturer's instructions.

HPIV3HA-P vRNP = test: vRNP distribution by immunofluorescence in HPIV3HA-P-infected HeLa cells; type: cell-based; details: HPIV3HA-P MOI = 0.01, 5 μM peptide, 24 h
Procedure: as §1
HeLa cells were cultured on coverslips in 24-well plates overnight and subjected to transfection or/and virus infection as indicated. Following this, cells were fixed with 4% paraformaldehyde for 20 min at room temperature (RT) and permeabilized with 0.2% Triton X-100 for 20 min at RT. Subsequently, cells were blocked with 3% bovine serum albumin (BSA) in PBS for 30 min at RT. The cells were then incubated with primary antibodies diluted in 1% BSA, followed by incubation with secondary antibodies, also diluted in 1% BSA. Nuclei were counterstained with DAPI, and plasma membrane were stained with Dil. Confocal microscopy images were acquired using a Leica confocal microscope.

WSN virus = type: in vivo, BALB/c mice
RSV [6] = type: in vivo, nude BALB/c mice

Structure (SMILES): CC[C@@H](C)[C@@H](NC(=O)[C@@H](CC(=O)O)NC(=O)[C@@H](CC(N)=O)NC(=O)[C@@H](CC(C)C)NC(=O)[C@@H](CC(C)C)NC(=O)[C@H](NC(=O)[C@@H](CCCNC(=N)N)NC(=O)[C@H](NC(=O)[C@@H](CCSC)NC(=O)[C@@H](CCC(=O)O)NC(=O)[C@@H](CCC(=O)O)NC(=O)[C@H](NC(=O)[C@@H](CCCNC(=N)N)NC(=O)[C@@H](CCCCN)NC(=O)[C@@H](CCCCN)NC(=O)[C@@H](CCCNC(=N)N)NC(=O)[C@@H](CCCNC(=N)N)NC(=O)[C@@H](CCC(N)=O)NC(=O)[C@@H](CCCNC(=N)N)NC(=O)[C@@H](CCCNC(=N)N)NC(=O)[C@H](N)CCCNC(=N)N)[C@H](C)O)C(C)C)C(C)C)C(=O)N[C@H](Cc1ccc(O)cc1)C(=O)O [YT-DRI] (HELM PEPTIDE1{[dR].[dR].[dR].[dQ].[dR].[dR].[dK].[dK].[dR].[dT].[dE].[dE].[dM].[dV].[dR].[dV].[dL].[dL].[dN].[dD].[dI].[dY]}$$$$V2.0; N-terminus and C-terminus assumed)
- acute toxicity: body weight ([1]; body weight recorded for 15 days, 5 mice per group): no significant changes
- acute toxicity: histopathological morphology ([1]; heart, liver, lung, kidney, H&E): no significant changes
- CC50 [2]: > 150000 nM
- SI (CC50/IC50), RSV, A549 (RSV [3]; 2 h): > 405.41
- SI (CC50/IC50), RSV, HEp-2 (RSV [3]; 2 h): > 681.82
- SI (CC50/IC50), RSV, HeLa (RSV [3]; 2 h): > 220.59
- SI (CC50/IC50), RSV, MDCK (RSV [3]; 2 h): > 326.09
- antiviral effect on RSV infection in RAB11A-KO HeLa cells (RSV [3]; RSV MOI 0.1, 5 μM, 24 hpi, TCID50): no significant antiviral effect
- HPIV3 viral growth in WT HeLa cells (HPIV3): significant reduction in viral growth
- effect on HPIV3 in RAB11A-KO HeLa cells (HPIV3): moderate and statistically insignificant
- IC50 (HPIV3; 36 h): 940 nM
- SI (CC50/IC50), HPIV3, A549 (HPIV3; 36 h): > 263.16
- SI (CC50/IC50), HPIV3, HeLa (HPIV3; 36 h): > 159.57
- SI (CC50/IC50), HPIV3, MDCK (HPIV3; 36 h): > 102.74
- N-RAB11A interaction (RAB11A–FIP2 complex): undetectable
- interaction between FIP2 and RAB11A (RAB11A–FIP2 complex; in contrast to control peptide Tat): significantly attenuated
- replication of HPIV3, RSV, and IAV in coinfection (viral RNA accumulation) (HPIV3, RSV, and IAV): markedly impeded the replication
- antiviral effect on IAV infection in RAB11A-KO HeLa cells (IAV): no significant antiviral effect
- EV71 replication, treated compared to untreated cells (EV71): no significant differences
- transport across the blood–brain barrier [4]: facilitated transport across the blood–brain barrier
- body weight loss, HPIV3-infected mice ([5]; 2 mg/kg i.p. once daily Day 0 to Day 2, vs PBS, n = 5): less weight loss
- lung histology, HPIV3 ([5]; 2 mg/kg i.p., 3 dpi, H&E, vs PBS): reduced lung inflammation
- viral RNA copies in the lung, HPIV3 ([5]; 2 mg/kg i.p., 3 dpi, RT-qPCR): significantly decreased
- infectious titers in the lung, HPIV3 ([5]; 2 mg/kg i.p., 3 dpi, TCID50): significantly decreased
- levels of N, P, and M proteins in the PM fraction and VLPs (HPIV3 VLPs in 293T cells): reduced levels
- vRNP localization (HPIV3HA-P vRNP): formation of large aggregates of vRNP in the cytoplasm
- body weight loss, IAV (WSN)-infected mice (WSN virus; 2 mg/kg i.p. once daily Day 0 to Day 4): reduced body weight loss
- survival rate, lethal IAV (WSN) infection (WSN virus; 2 mg/kg i.p. once daily Day 0 to Day 4, observed until 14 dpi, n = 5): 80%
- viral RNA copies in the lungs, IAV (WSN) (WSN virus; 2 mg/kg i.p., 4 dpi, RT-qPCR, vs PBS): decreased viral RNA copies
- lung histology, IAV (WSN) (WSN virus; 2 mg/kg i.p., 4 dpi, vs PBS): milder lung inflammation
- body weight loss, RSV-infected mice (RSV [6]; 2 mg/kg i.p. once daily Day 0 to Day 3, vs PBS, n = 5): reduced body weight loss
- lung histology, RSV (RSV [6]; 2 mg/kg i.p., 4 dpi, H&E): diminished lung tissue damage
- viral RNA copies in the lung, RSV (RSV [6]; 2 mg/kg i.p., 4 dpi, RT-qPCR): lower viral RNA copies
- infectious titers in the lung, RSV (RSV [6]; 2 mg/kg i.p., 4 dpi, TCID50): decreased infectious titers
